{"source": "patent US20250041302A1", "about": "“PROLYL HYDROXYLASE DOMAIN INHIBITOR FOR TREATING HEMORRHAGIC OR BURN SHOCK” (THE GOVERNMENT OF THE UNITED STATES, AS REPRESENTED BY THE …, priority 2022, published 2025)", "system": "rats with polytrauma and hemorrhagic shock", "experiment": "Oral PHDi prior to polytrauma/hemorrhage, pilot study (FIG. 3)", "format": "in vivo, Sprague-Dawley rats", "procedure": "FIG. 3. The effect of PHDi prior to polytrauma/hemorrhage on lactate level. PHDi (MK-8617, 1 mg/kg) or vehicle was orally applied in rats prior to trauma (n=3-4/group). The lactate in whole blood samples were collected at baseline (BSL), shed hemorrhage blood (HEM), 2- and 4 hours after trauma and measured by iSTAT. […] Values represent as means±SEM.\nPHDi (MK-8617, 500 microgram per rat) was orally applied prior to trauma, and the lactate (measured by iSTAT) was measured at baseline, 2 and 4 hours after trauma.\nModel-1, acute sub-lethal hemorrhagic shock with polytrauma (40% hemorrhage, fast speed hemorrhage at >1 ml/min, target MAP at 35-40 mmHg for 30 min): This model has intensive tissue damage and transient compensated hemorrhagic shock, and the animals survived for 4 hours after trauma without resuscitation or any intervention. The death occurs after 4 hours after trauma.\nBriefly, Sprague-Dawley rats (350-450 gram) were anesthetized with isoflurane/100% oxygen through a nosecone and allowed to breathe spontaneously. Cannulas were placed in the left femoral artery and vein for measurement of arterial blood pressure and to obtain vascular access (blood draw and resuscitation and drug administration) respectively. Polytrauma was induced by laparotomy, crush injury to the small intestines, the left and medial liver lobes, and the right leg skeletal muscle and by fracture of the right femur. In detail, a midline incision was made through the abdominal skin and underlying muscle layers. A 10-cm section of small intestines was isolated just anterior to the cecum and run gently through a clamp covered with silastic tubing with a 2-mm distance between the clamps to cause a gentle crush injury. The right and medial lobes of the liver will receive three crushes to each lobe using the same clamp. The intestines and liver were replaced, and the abdominal incision was closed with sutures in two layers. To fracture the […], a modification of a 3-point impact device was used by dropping six stainless-steel balls (65 g each) stacked together, from 36 inches through a guide tube (1 inch internal diameter) to impact on a rounded aluminum blade resting on the mid-right femur with the right leg resting on two aluminum stands, one under the hip and one under the knee. A large hemostat (5 in tongs) was used to clamp the muscle of the right leg 10 times. The crush injury was intended to cause microvascular damage, as opposed to cutting, chopping, or mincing of the tissue, which would have led to uncontrolled hemorrhage. The polytrauma was performed about 10 min followed immediately by hemorrhage. […]\nThe lactate in whole blood samples were collected at baseline (BSL), shed hemorrhage blood (HEM), 2- and 4 hours after trauma, and the lactate was measured by iSTAT. […]", "note": "“Also recorded” adds a separate entry of the source."}
{"smiles": "COc1ccc(C(NC(=O)c2cnc(-c3cccnn3)nc2O)c2ccc(OC)cc2)cc1", "note": "[MK-8617, N-[Bis(4-methoxyphenyl)methyl]-4-hydroxy-2-(pyridazin-3-yl)pyrimidine-5-carboxamide]", "values": [{"measurement": "average levels of lactate attenuated as compared with vehicle", "setting": "2 and 4 hr after trauma, oral prior to trauma", "result": "about 30%"}, {"measurement": "survival", "setting": "4 hours after trauma", "result": "all animals survived after 4 hours"}, {"measurement": "lactate in whole blood (iSTAT)", "setting": "4 hours after trauma, MK-8617 1 mg/kg orally prior to trauma, n=4", "result": "2.365 ± 0.733", "unit": "mmol/L"}, {"measurement": "rise of lactate", "setting": "oral MK-8617 1 mg/kg prior to trauma, 1 mg/kg", "result": "attenuated the rise of lactate; also recorded: mitigating the elevation of lactate; also recorded: attenuates lactate levels"}]}
